Test results reported in PubChem BioAssay AID1919003 (Molecular Pharmacology Branch, DTP, NCI, 2023).
Several values for one entry are separate records, joined by “and”; a condition that tells them apart may be missing. Equal values may be shown once.

System: 786-0 complex spheroids with HUVEC/MSC, growth % test/control
Test: Anticancer human tumor 786-0 cell line growth inhibition [AhR];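 also: compound exposure lasted seven days before the read-out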
Details: for viability, T/C: stronger effect = lower value
Summary of the method: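 Agents were dosed in half-log steps down from roughly clinical Cmax, or from 10 microM where Cmax was unknown, alone and with AhR antagonists. Read-out: percent test/control growth of tumor spheroids containing HUVEC and MSC stromal cells.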

[1] = curve of first compound, second compound 0.1 µM
[2] = curve of first compound, second compound 0.316 µM
[3] = curve of first compound, second compound 1 µM
[4] = curve of first compound, second compound 3.16 µM
[5] = curve of first compound, second compound 10 µM
[6] = second compound 0.1 µM, first compound 0.0316 µM
[7] = second compound 0.1 µM, first compound 0.1 µM
[8] = second compound 0.316 µM, first compound 0.0316 µM
[9] = second compound 0.316 µM, first compound 0.1 µM
[10] = second compound 1 µM, first compound 0.0316 µM
[11] = second compound 1 µM, first compound 0.1 µM
[12] = second compound 3.16 µM, first compound 0.0316 µM
[13] = second compound 3.16 µM, first compound 0.1 µM
[14] = second compound 10 µM, first compound 0.0316 µM
[15] = second compound 10 µM, first compound 0.1 µM

`CC[C@@]1(O)C(=O)OCc2c1cc1n(c2=O)Cc2cc3c(CN(C)C)c(O)ccc3nc2-1` + CC(CO)NC(=O)c1cc(-c2ccc(Cl)cc2)nn(-c2cnn(C)c2)c1=O was tested, and the IC50 [1] was 59 nM, the IC50 [2] was 57.6 nM and the IC50 [3] was 60.8 nM. The IC50 [4] was 53.6 nM, the IC50 [5] was 51.8 nM and the viability, T/C (second compound 0.1 µM, first compound 0.000316 µM) was 112%. It also gave a viability, T/C (second compound 0.1 µM, first compound 0.001 µM) of 119%, a viability, T/C (second compound 0.1 µM, first compound 0.00316 µM) of 111% and a viability, T/C (second compound 0.1 µM, first compound 0.01 µM) of 115%. The viability, T/C [6] was 90.9%, the viability, T/C [7] was 15.2% and the viability, T/C (second compound 0.316 µM, first compound 0.000316 µM) was 106%. The viability, T/C (second compound 0.316 µM, first compound 0.001 µM) was 114%, the viability, T/C (second compound 0.316 µM, first compound 0.00316 µM) was 112% and the viability, T/C (second compound 0.316 µM, first compound 0.01 µM) was 109%. It also gave a viability, T/C [8] of 89.9%, a viability, T/C [9] of 13.3% and a viability, T/C (second compound 1 µM, first compound 0.000316 µM) of 113%. For the same molecule, the viability, T/C (second compound 1 µM, first compound 0.001 µM) was 107%, the viability, T/C (second compound 1 µM, first compound 0.00316 µM) was 108% and the viability, T/C (second compound 1 µM, first compound 0.01 µM) was 104%. It also gave a viability, T/C [10] of 95.4%, a viability, T/C [11] of 15.2% and a viability, T/C (second compound 3.16 µM, first compound 0.000316 µM) of 113%. The viability, T/C (second compound 3.16 µM, first compound 0.001 µM) was 116%, the viability, T/C (second compound 3.16 µM, first compound 0.00316 µM) was 109% and the viability, T/C (second compound 3.16 µM, first compound 0.01 µM) was 109%. It also gave a viability, T/C [12] of 80.9%, a viability, T/C [13] of 13.4% and a viability, T/C (second compound 10 µM, first compound 0.000316 µM) of 118%. It also gave a viability, T/C (second compound 10 µM, first compound 0.001 µM) of 116%, a viability, T/C (second compound 10 µM, first compound 0.00316 µM) of 118% and a viability, T/C (second compound 10 µM, first compound 0.01 µM) of 113%. The viability, T/C [14] was 76.9% and the viability, T/C [15] was 14.1%.

`CC1(C)CCC(CN2CCN(c3ccc(C(=O)NS(=O)(=O)c4ccc(NCC5CCOCC5)c([N+](=O)[O-])c4)c(Oc4cnc5[nH]ccc5c4)c3)CC2)=C(c2ccc(Cl)cc2)C1` + Cc1cncc(-c2nc(NCCc3c[nH]c4ccccc34)c3ncn(C(C)C)c3n2)c1 was tested, and the IC50 [1] was > 10000 nM, the IC50 [2] was > 10000 nM and the IC50 [3] was > 10000 nM. For the same molecule, the IC50 [4] was > 10000 nM, the IC50 [5] was < 31.6 nM and the viability, T/C [6] was 107%. It also gave a viability, T/C [7] of 123%, a viability, T/C (second compound 0.1 µM, first compound 0.316 µM) of 117% and a viability, T/C (second compound 0.1 µM, first compound 1 µM) of 109%. The viability, T/C (second compound 0.1 µM, first compound 3.16 µM) was 113%, the viability, T/C (second compound 0.1 µM, first compound 10 µM) was 93.3% and the viability, T/C [8] was 117%. It also gave a viability, T/C [9] of 118%, a viability, T/C (second compound 0.316 µM, first compound 0.316 µM) of 119% and a viability, T/C (second compound 0.316 µM, first compound 1 µM) of 129%. For the same molecule, the viability, T/C (second compound 0.316 µM, first compound 3.16 µM) was 102%, the viability, T/C (second compound 0.316 µM, first compound 10 µM) was 93.8% and the viability, T/C [10] was 118%. It also gave a viability, T/C [11] of 105%, a viability, T/C (second compound 1 µM, first compound 0.316 µM) of 109% and a viability, T/C (second compound 1 µM, first compound 1 µM) of 103%. It also gave a viability, T/C (second compound 1 µM, first compound 3.16 µM) of 102%, a viability, T/C (second compound 1 µM, first compound 10 µM) of 97.3% and a viability, T/C [12] of 65.4%. The viability, T/C [13] was 71.9%, the viability, T/C (second compound 3.16 µM, first compound 0.316 µM) was 74.4% and the viability, T/C (second compound 3.16 µM, first compound 1 µM) was 76.8%. It also gave a viability, T/C (second compound 3.16 µM, first compound 3.16 µM) of 67.4%, a viability, T/C (second compound 3.16 µM, first compound 10 µM) of 70.8% and a viability, T/C [14] of 5.05%. The viability, T/C [15] was 3.29%, the viability, T/C (second compound 10 µM, first compound 0.316 µM) was 6.81% and the viability, T/C (second compound 10 µM, first compound 1 µM) was 6.55%. The viability, T/C (second compound 10 µM, first compound 3.16 µM) was 6.02% and the viability, T/C (second compound 10 µM, first compound 10 µM) was 23.1%.

`Cn1ncnc1C1c2n[nH]c(=O)c3cc(F)cc(c23)NC1c1ccc(F)cc1` (configuration not stated) was tested, and the viability, T/C (compound 0.000316 µM) was 108% (2×) and 92.5%, the viability, T/C (compound 0.001 µM) was 104% and 108% and 105% and the viability, T/C (compound 0.00316 µM) was 110% and 104% and 100%. For the same molecule, the viability, T/C (compound 0.01 µM) was 109% and 104% and 101%, the viability, T/C (compound 0.0316 µM) was 99.5% and 112% and 97.7% and the viability, T/C (compound 0.1 µM) was 106% and 108% and 102%. For the same molecule, the IC50 (curve of compound) was > 100 nM.
